Results taken from patent US12378249B2, “Isoquinoline compounds and uses thereof” (Genentech, Inc., priority 2018, dated 2025).

The molecules below were run against HPK1 (Homo sapiens (Human), UniProt Q92918, S171E/T165E) (assay: HPK1-FL HTRF Enzymatic Assay (HTRF)). Settings: HPK full length T165E S171E 0.125 nM, ATP 1 mM, Biotin-SLP76 100 nM, read-out: HPK1 Ki (nM), H = HTRF.
Format: biochemical
Method: Exemplary compounds of Formula (I) were tested to assess compound inhibition of HPK-1. The Ki for each exemplary compound was determined
Example B1: HPK1-FL HTRF Enzymatic Assay (“HTRF”)
HPK-FL enzyme phosphorylates Biotin-SLP-76 substrate in the presence of ATP at 1 mM and varying concentrations of test compound. Product is detected by FRET using Eu-anti-pSLP76 Ab and SA-XL665. Also see www.cisbio.com/HTRF for additional HTRF technology information.
• Echo555 compound dispenser • Agilent Bravo • Perkin Elmer Envision Final Assay Conditions:
Materials: • Assay plate: White ProxiPlate 384 F (PerkinElmer cat #6008289) • Kinase: HPK full length double mutant • Substrate: Biotin-SLP76 • ATP: 100 mM ATP • BSG: 2% BSG • DMSO: DMSO (Sigma cat #34869-100ML) • Reaction Buffer: H2O/50 mM HEPES, pH 7.5/10 mM MgCl2/2 mM TCEP/0.01% Brij-35/0.01% BSG • Detection mix:Eu-anti-pSLP76/SA-XL665 (Cisbio, #610SAXAC) Assay Procedure Ki determination:
To a 384 well Proxiplate with 80 nL compound or DMSO spotted on was added 4 μl/well kinase mix. The mixture was preincubated for 30 minutes and then 4 μl/well substrate mix was added. The solution was incubated for 60 min and then 4 μl/well detection mix was added. The solution was incubated for another 60 min. The plates were then loaded onto a Perkin Elmer Envision and the TR-FRET signal was measured at 615 and 665 nm. A ratio of […] was used to calculate the % activity at each concentration of compound.

Chain of HPK1 (Q92918 whole entry T165E/S171E): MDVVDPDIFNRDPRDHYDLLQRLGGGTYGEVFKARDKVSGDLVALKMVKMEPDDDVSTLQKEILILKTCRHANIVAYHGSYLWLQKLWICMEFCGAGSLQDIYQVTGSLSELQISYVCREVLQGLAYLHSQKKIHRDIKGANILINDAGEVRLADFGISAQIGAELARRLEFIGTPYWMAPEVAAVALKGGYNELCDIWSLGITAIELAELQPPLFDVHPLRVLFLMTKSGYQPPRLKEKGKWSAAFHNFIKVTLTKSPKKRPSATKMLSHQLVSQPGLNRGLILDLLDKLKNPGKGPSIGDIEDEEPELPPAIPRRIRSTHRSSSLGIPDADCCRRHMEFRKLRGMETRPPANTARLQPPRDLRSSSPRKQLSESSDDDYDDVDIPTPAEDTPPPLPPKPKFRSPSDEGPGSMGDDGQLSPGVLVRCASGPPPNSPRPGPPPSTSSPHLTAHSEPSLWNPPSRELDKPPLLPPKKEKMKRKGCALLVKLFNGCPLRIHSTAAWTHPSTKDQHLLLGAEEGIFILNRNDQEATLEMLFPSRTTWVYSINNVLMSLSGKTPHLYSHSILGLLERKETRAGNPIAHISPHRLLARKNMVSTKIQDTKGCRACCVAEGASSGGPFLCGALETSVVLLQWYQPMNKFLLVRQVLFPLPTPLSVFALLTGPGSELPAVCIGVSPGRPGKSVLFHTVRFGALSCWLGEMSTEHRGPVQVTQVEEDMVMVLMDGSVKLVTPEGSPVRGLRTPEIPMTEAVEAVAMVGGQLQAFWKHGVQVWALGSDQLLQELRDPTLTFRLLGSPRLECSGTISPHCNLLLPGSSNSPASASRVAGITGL

Ki [nM]	Structure (SMILES)
2.1	CO[C@@H]1CCNc2c1ncc(-c1cc(F)c3cnc(Nc4cc5n(n4)CC(=O)N(C)CC5)cc3c1)c2C (single isomer, unassigned) [Compound 234b]
0.128	Cc1c(N)cncc1-c1cc2cc(Nc3cc4n(n3)CC(=O)N(C(C)(C)C)C[C@H]4F)ncc2cc1F (single isomer, unassigned) [Compound 167a]
0.064	Cc1c(N)cncc1-c1cc2cc(Nc3cc4n(n3)CC(=O)N(C(C)C)C[C@H]4O)ncc2cc1F (single isomer, unassigned) [Compound 153a]
0.043	Cc1c(N)cncc1-c1cc2cc(Nc3cc4n(n3)CC(=O)N([C@@H](C)CO)CC4)ncc2cc1F (single isomer, unassigned) [Compound 149a]
4.82	Cc1c(-c2cc3cc(Nc4cc5n(n4)CC(=O)N(C)CC5)ncc3cc2F)cnc2c1C(O)CCO2 (single isomer, unassigned) [Compound 180b, 2-((7-Fluoro-6-(4-hydroxy-5-methyl-3,4-dihydro-2H-pyrano[2,3-b]pyridine-6-yl)isoquinolin-3-yl)amino)-6-methyl-5,6-dihydro-4H-pyrazolo[1,5-d][1,4]diazepin-7(8H)-one]
1.9	Cc1c(-c2cc3cc(Nc4cc5n(n4)CC(=O)N(C)CC5)ncc3cc2F)cnc2c1[C@](C)(O)CCO2 (single isomer, unassigned) [Compound 226b]
0.11	Cc1c(-c2cc3cc(Nc4cc5n(n4)CC(=O)N(C)CC5)ncc3cc2F)cnc2c1NCC(C)(C)[C@H]2O (single isomer, unassigned) [Compound 241a]
0.075	Cc1c(N)cncc1-c1cc2cc(Nc3cc4n(n3)CC(=O)N(C(C)C)CC4O)ncc2cc1F (single isomer, unassigned) [Compound 153b]
0.062	Cc1c(-c2cc3cc(Nc4cc5n(n4)CC(=O)N(C)CC5)ncc3cc2F)cnc2c1NCC[C@H]2O (single isomer, unassigned) [Compound 236b]
0.013	Cc1c(-c2cc3cc(Nc4cc5n(n4)Cc4nccn4CC5)ncc3cc2F)cnc2c1NCC[C@@H]2O (single isomer, unassigned) [Compound 243a]

Second part, the molecule before the results:

Structure (SMILES)	Ki [nM]
Cc1c(N)cncc1-c1cc2cc(Nc3cc4n(n3)CC(=O)N(CCN3CCOCC3)CC4)ncc2cc1F [Compound 136, 2-((6-(5-amino-4-methylpyridin-3-yl)-7-fluoroisoquinolin-3-yl)amino)-6-(2-morpholinoethyl)-5,6-dihydro-4H-pyrazolo[1,5-d][1,4]diazepin-7(8H)-one]	0.028
Cc1c(N)cncc1-c1cc(F)c2cnc(Nc3cc4n(n3)Cc3nccn3CC4)cc2c1 [Compound 168, N-(6-(5-amino-4-methylpyridin-3-yl)-8-fluoroisoquinolin-3-yl)-5,6-dihydro-1I1H-imidazo[1,2-a]pyrazolo[1,5-d][1,4]diazepin-8-amine]	0.028
Cc1c(-c2cc3cc(Nc4cc5n(n4)CC(=O)N(C)CC5)ncc3cc2F)cnc(=O)n1C [Compound 203, 2-((6-(1,6-dimethyl-2-oxo-1,2-dihydropyrimidin-5-yl)-7-fluoroisoquinolin-3-yl)amino)-6-methyl-5,6-dihydro-4H-pyrazolo[1,5-d][1,4]diazepin-7(8H)-one]	97
Cc1c(-c2cc3cc(Nc4cc5n(n4)CC(=O)N(C(C)C)CC5)ncc3cc2F)cnc2oc(=O)[nH]c12 [Compound 142, 6-(7-fluoro-3-((6-isopropyl-7-oxo-5,6,7,8-tetrahydro-4H-pyrazolo[1,5-d][1,4]diazepin-2-yl)amino)isoquinolin-6-yl)-7-methyloxazolo[5,4-b]pyridin-2(1H)-one]	1.9
Cc1ncc(-c2cc3cc(Nc4cc5n(n4)CC(=O)N(C(C)C)CC5F)ncc3cc2F)c(C)c1N (racemic) [Compound 150, (+/-)-2-((6-(5-amino-4,6-dimethylpyridin-3-yl)-7-fluoroisoquinolin-3-yl)amino)-4-fluoro-6-isopropyl-5,6-dihydro-4H-pyrazolo[1,5-d][1,4]diazepin-7(8H)-one]	0.15
Cc1c(N)cncc1-c1cc2cc(Nc3cc4n(n3)CC(=O)N(C(C)C)CC4)ncc2c(C)c1F [Compound 121, 2-((6-(5-amino-4-methylpyridin-3-yl)-7-fluoro-8-methylisoquinolin-3-yl)amino)-6-isopropyl-5,6-dihydro-4H-pyrazolo[1,5-d][1,4]diazepin-7(8H)-one]	0.08
Cc1c(N)cncc1-c1cc2cc(Nc3cc4n(n3)CC3=NOC(C)(C)N3CC4)ncc2cc1F [Compound 166, N-(6-(5-amino-4-methylpyridin-3-yl)-7-fluoroisoquinolin-3-yl)-3,3-dimethyl-5,6-dihydro-3H,11H-[1,2,4]oxadiazolo[4,3-a]pyrazolo[1,5-d][1,4]diazepin-8-amine]	0.12
Cc1c(-c2cc3cc(Nc4cc5n(n4)CC(=O)N(C)CC5)ncc3cc2F)cnnc1N [Compound 194, 2-((6-(6-amino-5-methylpyridazin-4-yl)-7-fluoroisoquinolin-3-yl)amino)-6-methyl-5,6-dihydro-4H-pyrazolo[1,5-d][1,4]diazepin-7(8H)-one]	0.83
CNc1cncc(-c2cc3cc(Nc4cc5n(n4)CC(=O)NCC5)ncc3cc2F)c1C [Compound 181, 2-((7-fluoro-6-(4-methyl-5-(methylamino)pyridin-3-yl)isoquinolin-3-yl)amino)-5,6-dihydro-4H-pyrazolo[1,5-d][1,4]diazepin-7(8H)-one]	0.026
CNCc1ccc(F)c(-c2ccc3cnc(Nc4cc5n(n4)CC(=O)N(C)CC5)cc3c2)c1C [Compound 219, 2-((6-(6-fluoro-2-methyl-3-((methylamino)methyl)phenyl)isoquinolin-3-yl)amino)-6-methyl-5,6-dihydro-4H-pyrazolo[1,5-d][1,4]diazepin-7(8H)-one]	7
Cc1c(N)cncc1-c1cc2cc(Nc3cc4n(n3)CC(=O)N(CCO)CC4)ncc2cc1F [Compound 159, 2-((6-(5-amino-4-methylpyridin-3-yl)-7-fluoroisoquinolin-3-yl)amino)-6-(2-hydroxyethyl)-5,6-dihydro-4H-pyrazolo[1,5-d][1,4]diazepin-7(8H)-one]	0.015
Cc1c(-c2cc3cc(Nc4cc5n(n4)CC(=O)N(CCN4CCOCC4)CC5)ncc3cc2F)cnc2c1NCCO2 [Compound 132, 2-[[7-fluoro-6-(8-methyl-2,3-dihydro-1H-pyrido[2,3-b][1,4]oxazin-7-yl)-3-isoquinolyl]amino]-6-(2-morpholinoethyl)-5,8-dihydro-4H-pyrazolo[1,5-d][1,4]diazepin-7-one]	0.02
Cc1c(NS(C)(=O)=O)cncc1-c1cc2cc(Nc3cc4n(n3)CC(=O)N(C)CC4)ncc2cc1F [Compound 172, N-(5-(7-fluoro-3-((6-methyl-7-oxo-5,6,7,8-tetrahydro-4H-pyrazolo[1,5-d][1,4]diazepin-2-yl)amino)isoquinolin-6-yl)-4-methylpyridin-3-yl)methanesulfonamide]	0.46
Cc1ncc(-c2cc3cc(Nc4cc5n(n4)CC(=O)N(C(C)C)CC5)ncc3cc2F)c(C)c1N [Compound 126, 2-((6-(5-amino-4,6-dimethylpyridin-3-yl)-7-fluoroisoquinolin-3-yl)amino)-6-isopropyl-5,6-dihydro-4H-pyrazolo[1,5-d][1,4]diazepin-7(8H)-one]	0.148
Cc1c(-c2cc3cc(Nc4cc5n(n4)CC(=O)NCC5)ncc3cc2F)cnc2c1NCCOC2 [Compound 230, 2-((7-fluoro-6-(9-methyl-1,2,3,5-tetrahydropyrido[3,2-e][1,4]oxazepin-8-yl)isoquinolin-3-yl)amino)-5,6-dihydro-4H-pyrazolo[1,5-d][1,4]diazepin-7(8H)-one]	0.793
Cc1c(-c2cc3cc(Nc4cc5n(n4)CC(=O)N(C)CC5)ncc3cc2F)cnc2c1CNCCO2 [Compound 232, 2-((7-fluoro-6-(6-methyl-2,3,4,5-tetrahydropyrido[3,2-f][1,4]oxazepin-7-yl)isoquinolin-3-yl)amino)-6-methyl-5,6-dihydro-4H-pyrazolo[1,5-d][1,4]diazepin-7(8H)-one]	11
Cc1c(-c2cc3cc(Nc4cc5n(n4)CC(=O)N(C)CC5)ncc3cc2F)cnc2c1NCCC2(F)F [Compound 208, 2-((6-(8,8-difluoro-4-methyl-5,6,7,8-tetrahydro-1,5-naphthyridin-3-yl)-7-fluoroisoquinolin-3-yl)amino)-6-methyl-5,6-dihydro-4H-pyrazolo[1,5-d][1,4]diazepin-7(8H)-one]	0.02
Cc1cc(N2CCNCC2)ncc1-c1cc2cc(Nc3cc4n(n3)CC(=O)N(C)CC4)ncc2cc1F [Compound 198, 2-((7-fluoro-6-(4-methyl-6-(piperazin-1-yl)pyridin-3-yl)isoquinolin-3-yl)amino)-6-methyl-5,6-dihydro-4H-pyrazolo[1,5-d][1,4]diazepin-7(8H)-one]	4.2
Cc1c(CN)cccc1-c1cc2cc(Nc3cc4n(n3)CC(=O)N(C)CC4)ncc2cc1F [Compound 207, 2-((6-(3-(aminomethyl)-2-methylphenyl)-7-fluoroisoquinolin-3-yl)amino)-6-methyl-5,6-dihydro-4H-pyrazolo[1,5-d][1,4]diazepin-7(8H)-one]	22
